# Measured values as given in patent publication US20250243174A1, “ANTITUMORAL COMPOUNDS” (PHARMA MAR, S.A., priority 2021, published 2025).
# Key:
# [1] = MTMD (Maximum Tolerated Multiple Dose) determination; format: in vivo; conditions: iv, Q7dx3; female athymic nude mice
# Protocol: (§1) Female Athymic Nude-Fox1 nu/nu mice (Envigo) were utilized for all experiments. Animals (N=10/cage) were housed in individually ventilated cages (Sealsafe Plus®, Techniplast S.P.A.), on a 12-hour light-dark cycle at 21-23° C. and 40-60% humidity. Mice were allowed free access to irradiated standard rodent diet (Tecklad 2914C) and sterilized water. Animals were acclimated for five days prior to being individually tattoo-identified. Animal protocols were reviewed and approved according to the regional Institutional Animal Care and Use Committees.
# (§2) Mice were randomly allocated into experimental groups and intravenously administered, once for the MTD (Maximum Tolerated Dose) determination or one administration a week during three consecutive weeks, for the MTMD (Maximum Tolerated Multiple Dose) determination study. The animals were administered with white formulation or with compound dissolved in the experimental formulation at different concentrations. The volume administered was always 10 mL/kg. Once administered, animals were monitored for clinical signs of systemic toxicity, changes in body weight and mortality up to 14 days after the administration.
# HCT-116 xenografts = assay: Example 7, colon xenograft model HCT-116; format: in vivo; conditions: for TV, median (IQR) / Median survival time: iv Q7dx3; for TV, median (IQR): high dose: PM060184 16, Comp. 2 2, Comp. 3 1 mg/kg; for mean time with tumor remission: high dose: compound 2 2.0, compound 3 1.0, PM060184 16 mg/kg; for animals in complete tumor remission: highest dose: compound 2 2.0, compound 3 1.0 mg/kg; for antitumor activity compared to PM060184-treated group at 16 mg/kg: once treatments were finalized (days 21 to 35), 2 at 2 mg/kg, 3 at 1 mg/kg; for mean body weight reduction: recorded on Day 9, compound 2 2.0 mg/kg, compound 3 1.0 mg/kg
# Protocol: Female athymic nu/nu mice (Harlan Laboratories Models, S.L. Barcelona, Spain or Envigo, Spain) were utilized for all experiments. Animal were housed in individually ventilated cages Sealsafe® Plus, Techniplast S.P.A.), up to ten per cage on a 12-hour light-dark cycle at 21-23° C. and 40-60% humidity. Mice were allowed free access to irradiated standard rodent diet (Tecklad 2914C) and sterilized water. Animals were acclimated for at least 5 days prior to tumor implantation with a tumor cell suspension.
# HCT116 cells were maintained in vitro at 37° C., 5% Co2 in McCoy's 5A Medium (Sigma Aldrich, Co.). Culture cells were passage every 3 to 5 days on reaching confluence. Each animal was subcutaneously implanted (on the right flank using 26G needle and a 1 cc syringe) at 4-6 weeks of age with 5×10^6 HCT116 cells suspended in 0.05 mL of a solution consisting of 50% Matrigel® (Corning Incorporated Life Sciences) and 50% medium without serum or antibiotics.
# All treatments were intravenously administered on a weekly basis at their MTD, ¼ MTD and 1/16 MTD (high, medium and low dose).
# Briefly: • 4 to 6 week-old athymic nu/nu female mice were subcutaneously implanted with tumor cells growing in culture. • When tumors reached a certain volume, tumor bearing animals (N=8-10/group) were randomly allocated into treatment groups. • Tumor dimensions and body weights were recorded 2-3 times per week starting from the first day of treatment (Day 0). Treatments producing >20% lethality and/or 20% net body weight loss were considered toxic. Tumor volume was calculated using the equation (a·b^2)/2, where a and b were the longest and shortest diameters, respectively. Animals were euthanized when their tumors reached ca. 2,000 mm^3 and/or severe necrosis was seen. • Median was calculated for tumor volume on each measurement day. • Antitumor effect was assessed comparing tumor volume data from groups following the 1st, 2nd, 3rd study weeks, or more depending on the case, using a two-tailed Mann-Whitney U test. The data are presented as medians and interquartile range (IQR). • Complete tumor regression (CR) was defined when tumor volume<63 mm^3 for 2 or more consecutive measurements. • Treatment tolerability was assessed by monitoring body weight evolution, clinical signs of systemic toxicity as well as evidences of local damage at the injection site.
# PM060184 was provided in the form of freeze-dried vials of lyophilized product. Each vial was reconstituted with water for infusion to a concentration of 2.5 mg/mL.
# Compounds 2 and 3 were provided in the powder form and were solubilized with hydroxy-propyl-β-cyclodextrin (HPβCD), reaching a concentration of 1 mg/ml or 0.2 mg/ml, respectively. Placebo was provided in the form of lyophilised cake containing 1.2 g of hydroxy-propyl-β-cyclodextrin (HPβCD) which was reconstituted with water for infusion.
# In these experiments, compounds 2, 3 and PM060184, as well as placebo, were intravenously administered once per week for 3 consecutive weeks, on Days 0, 7 and 14, whenever it was possible.
# The experiment was carried out as previously explained. When tumors reached ca. 195-205 mm^3, tumor bearing animals (N=10/group) were randomly allocated into the following treatment groups:
# Treatments were initiated on Day 0.
# [2] = MTD (Maximum Tolerated Dose) determination; conditions: Athymic Nude-Fox1 nu/nu, mouse, in vivo; iv, single dose; female athymic nude mice
# Protocol: as §1, §2
# [3] = high dose: PM060184 16.0, Comp. 2 2.0, Comp. 3 1.0 mg/kg, ud = group not reached mortality
# [4] = low dose: PM060184 1.0, Comp. 2 0.125, Comp. 3 0.0625 mg/kg
# [5] = medium dose: PM060184 4.0, Comp. 2 0.5, Comp. 3 0.25 mg/kg
# [6] = medium-dose: compound 2 0.5, compound 3 0.25 mg/kg
SMILES,MTMD [1] [mg/kg],"TV, median (IQR) (HCT-116 xenografts; Day 7)","TV, median (IQR) (HCT-116 xenografts; Day 14)","TV, median (IQR) (HCT-116 xenografts; Day 21)","TV, median (IQR) (HCT-116 xenografts; Day 28)","TV, median (IQR) (HCT-116 xenografts; Day 35)",Median survival time (HCT-116 xenografts; [3]),mean time with tumor remission (HCT-116 xenografts) [days],animals that reached a complete remission (n/10) (HCT-116 xenografts; high-dose: PM060184 16 mg/kg),Median survival time (HCT-116 xenografts; [4]) [days],Median survival time (HCT-116 xenografts; [5]) [days],"body weight decrease (HCT-116 xenografts; recorded on Day 2, PM060184 16 mg/kg)",MTD [2] [mg/kg],animals in complete tumor remission (HCT-116 xenografts) [%],animals that reached a complete remission (n/10) (HCT-116 xenografts; [6]),complete remission lasted a mean of (HCT-116 xenografts; [6]) [days],antitumor activity compared to PM060184-treated group at 16 mg/kg (HCT-116 xenografts),mean body weight reduction (HCT-116 xenografts),MTD at 14 days [2] [mg/kg]
"C/C=C\C[C@@H](C/C=C\NC(=O)[C@@H](NC(=O)\C=C/C=C\C(C)=C\[C@H](C)[C@@H]1CC=C(OC)C(=O)O1)C(C)(C)C)OC(N)=O [PM060184, reference compound]",16.0,140.5 (123.0-157.3) mm3,59.2 (50.7-84.2) mm3,63.8 (43.6-80.0) mm3,265.7 (195.2-284.3) mm3,650.2 (516.7-732.6) mm3,47 days,5.8,6/10,19,43,ca. −3.2%,16,–,–,–,–,–,–
COC1=CC[C@@H]([C@@H](C)/C=C(C)/C=C\C=C/C(=O)N[C@H](C(=O)N/C=C\C[C@H](CC=C(C)C)OC(N)=O)C(C)(C)C)OC1=O [Compound 3],1.0,121.6 (86.3-164.8) mm3,55.6 (16.2-82.3) mm3,32.0 (4.0-40.0) mm3,13.5 (4.0-13.5) mm3,13.5 (13.5-13.5) mm3,ud,23.7,–,14,49,–,–,100,1/10,2,"big difference, in terms of antitumor activity, statistically significant",ca. −16.2%,1
COC1=CC[C@@H]([C@@H](C)/C=C(C)/C=C\C=C/C(=O)N[C@H](C(=O)N/C=C\C[C@H](C/C=C(\C)F)OC(N)=O)C(C)(C)C)OC1=O [Compound 2],2.0,135.5 (114.1-154.5) mm3,57.2 (47.1-62.9) mm3,25.0 (13.5-34.0) mm3,13.5 (13.5-32.0) mm3,13.5 (13.5-13.5) mm3,ud,25.8,–,19,58,–,–,100,4/10,9,"big difference, in terms of antitumor activity, statistically significant",ca. −13.5%,2
